This passage reports IC50 results from ChEMBL document CHEMBL1148945, “Isolation of cytochrome P450 inhibitors from strawberry fruit, Fragaria ananassa” (J Nat Prod, 2004).

For orientation: IC50 means the point on the concentration scale where inhibition reaches its midpoint.

The target in this test is Cytochrome P450 3A4 (Homo sapiens, UniProt P08684). In words: Inhibition of human CYP3A4. The class given is ADME.
Cytochrome P450 3A4, sequence (P08684 whole entry): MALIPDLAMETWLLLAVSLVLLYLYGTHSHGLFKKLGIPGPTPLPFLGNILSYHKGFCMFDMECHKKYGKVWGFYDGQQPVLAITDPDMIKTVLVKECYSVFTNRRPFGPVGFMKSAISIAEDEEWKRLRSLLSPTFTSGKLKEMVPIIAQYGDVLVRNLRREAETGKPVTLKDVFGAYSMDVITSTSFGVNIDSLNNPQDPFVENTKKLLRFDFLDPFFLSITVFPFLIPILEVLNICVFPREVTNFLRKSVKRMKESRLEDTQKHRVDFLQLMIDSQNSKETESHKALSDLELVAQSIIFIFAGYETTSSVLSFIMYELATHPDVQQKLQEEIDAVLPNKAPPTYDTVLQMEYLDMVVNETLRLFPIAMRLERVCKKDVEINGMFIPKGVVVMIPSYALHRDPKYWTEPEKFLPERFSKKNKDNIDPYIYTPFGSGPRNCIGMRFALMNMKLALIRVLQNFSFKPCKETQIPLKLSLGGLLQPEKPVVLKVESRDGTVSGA
`CC(C)CC(=O)c1c(O)cc(O)cc1O[C@@H]1O[C@H](CO)[C@@H](O)[C@H](O)[C@H]1O` gave an IC50 of 120000 nM. Compound `O=C(/C=C\c1ccc(O)cc1)OC[C@H]1O[C@@H](Oc2c(-c3ccc(O)cc3)oc3cc(O)cc(O)c3c2=O)[C@H](O)[C@@H](O)[C@@H]1O` yielded a half-maximal inhibitory concentration (IC50) of 700 nM. On to `O=C(/C=C/c1ccc(O)cc1)OC[C@H]1O[C@@H](Oc2c(-c3ccc(O)cc3)oc3cc(O)cc(O)c3c2=O)[C@H](O)[C@@H](O)[C@@H]1O` [TILIROSIDE], for which the IC50 was found to be 700 nM.
